Assay results published in ChEMBL document CHEMBL4325853, “Design, synthesis and antibacterial evaluation of 2,4-disubstituted-6-thiophenyl-pyrimidines” (Eur J Med Chem, 2019).
≈ marks a conversion by molar mass, not a printed value. Calls of active or inactive are those of the source. No cut-off for these calls is given here.

Key:
[1] = tested on: Enterococcus faecalis; assay: Potency index, ratio of berberine MIC to test compound MIC for Enterococcus faecalis ATCC 29212; format: functional
[2] = Selectivity index, ratio of HC50 for human erythrocytes to MIC for methicillin-resistant Staphylococcus aureus ATCC BAA41; format: toxicity; settings: read-out: Selectivity Index
[3] = tested on: Enterococcus faecalis; assay: Bactericidal activity against vancomycin-resistant Enterococcus faecalis ATCC 700221 after 18 hrs by broth microdilution method; format: functional; settings: ATCC 700221, 18 h
[4] = tested on: Enterococcus faecium; assay: Potency index, ratio of berberine MIC to test compound MIC for Enterococcus faecium ATCC 49624; format: functional
[5] = tested on: Staphylococcus aureus; assay: Antibacterial activity against methicillin-resistant Staphylococcus aureus isolate 5056 after 18 hrs by broth microdilution method; format: functional; settings: isolate 5056, 18 h
[6] = Selectivity index, ratio of HC50 for human erythrocytes to MIC for methicillin-resistant Staphylococcus aureus ATCC 43300; format: toxicity; settings: read-out: Selectivity Index
[7] = tested on: Staphylococcus aureus; assay: Antibacterial activity against methicillin-resistant Staphylococcus aureus isolate 7864 after 18 hrs by broth microdilution method; format: functional; settings: isolate 7864, 18 h
[8] = Hemolytic activity against human erythrocytes measured after 1 hr; format: ADME, cell-based, Erythrocyte
[9] = target: T1, Cell division protein FtsZ (Staphylococcus aureus) (UniProt P0A031); assay: Inhibition of recombinant Staphylococcus aureus FtsZ GTPase activity assessed as reduction in inorganic phosphate formation after 30 mins by colorimetric method
T1 sequence (whole entry): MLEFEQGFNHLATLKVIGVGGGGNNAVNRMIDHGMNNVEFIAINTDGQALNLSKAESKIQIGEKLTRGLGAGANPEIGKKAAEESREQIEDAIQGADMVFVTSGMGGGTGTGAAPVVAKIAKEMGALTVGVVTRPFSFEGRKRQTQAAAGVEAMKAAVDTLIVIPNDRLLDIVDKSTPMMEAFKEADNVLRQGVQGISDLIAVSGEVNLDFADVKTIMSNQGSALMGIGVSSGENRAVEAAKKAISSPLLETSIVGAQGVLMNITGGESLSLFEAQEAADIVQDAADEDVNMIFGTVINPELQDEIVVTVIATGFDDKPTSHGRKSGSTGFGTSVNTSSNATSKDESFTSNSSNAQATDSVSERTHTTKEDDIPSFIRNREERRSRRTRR

[10] = tested on: Staphylococcus aureus; assay: Antibacterial activity against methicillin-resistant Staphylococcus aureus isolate 1220 after 18 hrs by broth microdilution method; format: functional; settings: isolate 1220, 18 h
[11] = target: T1, Cell division protein FtsZ (Staphylococcus aureus); assay: Inhibition of recombinant Staphylococcus aureus FtsZ polymerization by 90 degree light scattering-based fluorescence spectrometric analysis
[12] = tested on: Staphylococcus aureus; assay: Antibacterial activity against methicillin-resistant Staphylococcus aureus isolate 7807 after 18 hrs by broth microdilution method; format: functional; settings: isolate 7807, 18 h
[13] = tested on: Staphylococcus aureus; assay: Antibacterial activity against methicillin-resistant Staphylococcus aureus isolate 2491 after 18 hrs by broth microdilution method; format: functional; settings: isolate 2491, 18 h
[14] = tested on: Bacillus subtilis; assay: Antibacterial activity against Bacillus subtilis 168 after 18 hrs by broth microdilution method; format: functional; settings: subsp. subtilis str. 168, 18 h
[15] = tested on: Staphylococcus aureus; assay: Antibacterial activity against methicillin-resistant Staphylococcus aureus isolate 2350 after 18 hrs by broth microdilution method; format: functional; settings: isolate 2350, 18 h
[16] = tested on: Staphylococcus aureus; assay: Antibacterial activity against methicillin-resistant Staphylococcus aureus isolate 7664 after 18 hrs by broth microdilution method; format: functional; settings: isolate 7664, 18 h
[17] = tested on: Staphylococcus aureus; assay: Antibacterial activity against methicillin-resistant Staphylococcus aureus isolate 7947 after 18 hrs by broth microdilution method; format: functional; settings: isolate 7947, 18 h
[18] = Selectivity index, ratio of HC50 for human erythrocytes to MIC for methicillin-resistant Staphylococcus aureus ATCC 33592; format: toxicity; settings: read-out: Selectivity Index
[19] = Selectivity index, ratio of HC50 for human erythrocytes to MIC for methicillin-resistant Staphylococcus aureus ATCC 33591; format: toxicity; settings: read-out: Selectivity Index
[20] = tested on: Enterococcus faecium; assay: Antibacterial activity against Enterococcus faecium ATCC 49624 after 18 hrs by broth microdilution method; format: functional; settings: ATCC 49624, 18 h
[21] = tested on: Staphylococcus aureus; assay: Antibacterial activity against Staphylococcus aureus ATCC 29213 after 10 passages by broth microdilution method; format: functional, organism-based
[22] = tested on: Staphylococcus aureus; assay: Antibacterial activity against methicillin-resistant Staphylococcus aureus isolate 3123 after 18 hrs by broth microdilution method; format: functional; settings: isolate 3123, 18 h
[23] = tested on: Staphylococcus aureus; assay: Antibacterial activity against methicillin-resistant Staphylococcus aureus isolate 7183 after 18 hrs by broth microdilution method; format: functional; settings: isolate 7183, 18 h
[24] = tested on: Staphylococcus aureus; assay: Antibacterial activity against methicillin-resistant Staphylococcus aureus isolate 7813 after 18 hrs by broth microdilution method; format: functional; settings: isolate 7813, 18 h
[25] = tested on: Staphylococcus aureus; assay: Antibacterial activity against methicillin-resistant Staphylococcus aureus isolate 7844 after 18 hrs by broth microdilution method; format: functional; settings: isolate 7844, 18 h
[26] = tested on: Staphylococcus aureus; assay: Antibacterial activity against Staphylococcus aureus ATCC 29213 after 18 hrs by broth microdilution method; format: functional; settings: ATCC 29213, 18 h
[27] = tested on: Staphylococcus aureus; assay: Antibacterial activity against methicillin-resistant Staphylococcus aureus isolate 4955 after 18 hrs by broth microdilution method; format: functional; settings: isolate 4955, 18 h
[28] = tested on: Staphylococcus aureus; assay: Ratio of MIC for Staphylococcus aureus ATCC 29213 after and before 11 to 21 serial passages; format: functional
[29] = tested on: Staphylococcus aureus; assay: Antibacterial activity against methicillin-resistant Staphylococcus aureus ATCC 43300 after 18 hrs by broth microdilution method; format: functional; settings: ATCC 43300, 18 h
[30] = tested on: Enterococcus faecalis; assay: Antibacterial activity against vancomycin-resistant Enterococcus faecalis ATCC 51575 after 18 hrs by broth microdilution method; format: functional; settings: ATCC 51575, 18 h
[31] = target: T1, Cell division protein FtsZ (Staphylococcus aureus); assay: Inhibition of recombinant Staphylococcus aureus FtsZ polymerization at 8 ug/ml by 90 degree light scattering-based fluorescence spectrometric analysis
[32] = tested on: Staphylococcus aureus; assay: Antibacterial activity against methicillin-resistant Staphylococcus aureus ATCC BAA1720 after 18 hrs by broth microdilution method; format: functional; settings: ATCC BAA1720, 18 h
[33] = Selectivity index, ratio of HC50 for human erythrocytes to MIC for methicillin-resistant Staphylococcus aureus ATCC BAA1720; format: toxicity; settings: read-out: Selectivity Index
[34] = tested on: Staphylococcus aureus; assay: Potency index, ratio of methicillin MIC to test compound MIC for methicillin-resistant Staphylococcus aureus ATCC 33592; format: functional
[35] = tested on: Staphylococcus aureus; assay: Antibacterial activity against methicillin-resistant Staphylococcus aureus isolate 8179 after 18 hrs by broth microdilution method; format: functional; settings: isolate 8179, 18 h
[36] = tested on: Staphylococcus epidermidis; assay: Potency index, ratio of berberine MIC to test compound MIC for Staphylococcus epidermidis ATCC 12228; format: functional
[37] = tested on: Staphylococcus aureus; assay: Antibacterial activity against methicillin-resistant Staphylococcus aureus isolate 5239 after 18 hrs by broth microdilution method; format: functional; settings: isolate 5239, 18 h
[38] = tested on: Staphylococcus aureus; assay: Ratio of MBC to MIC for methicillin-resistant Staphylococcus aureus ATCC 43300; format: functional
[39] = tested on: Staphylococcus aureus; assay: Antibacterial activity against methicillin-resistant Staphylococcus aureus isolate 7917 after 18 hrs by broth microdilution method; format: functional; settings: isolate 7917, 18 h
[40] = tested on: Staphylococcus aureus; assay: Antibacterial activity against methicillin-resistant Staphylococcus aureus isolate 2931 after 18 hrs by broth microdilution method; format: functional; settings: isolate 2931, 18 h
[41] = tested on: Staphylococcus aureus; assay: Antibacterial activity against methicillin-resistant Staphylococcus aureus isolate 4548 after 18 hrs by broth microdilution method; format: functional; settings: isolate 4548, 18 h
[42] = tested on: Staphylococcus aureus; assay: Antibacterial activity against methicillin-resistant Staphylococcus aureus isolate 7863 after 18 hrs by broth microdilution method; format: functional; settings: isolate 7863, 18 h

SMILES: CC(C)c1ccc(CN2CCCN(CCc3cc(-c4cccs4)nc(-c4ccncc4)n3)CC2)cc1
- Ratio [1]: 50 - 100
- selectivity ratio [2]: > 32
- MBC [3]: 4 µg/mL (≈ 8.04 µM)
- Ratio [4]: 50 - 100
- MIC90 [5]: 2 µg/mL (≈ 4.02 µM)
- selectivity ratio [6]: > 32
- MIC90 [7]: 2 µg/mL (≈ 4.02 µM)
- HC50 at 1 h [8]: > 64 µg/mL
- inhibition [9]: Dose-dependent effect
- MIC90 [10]: 2 µg/mL (≈ 4.02 µM)
- inhibition [11]: Dose-dependent effect
- MIC90 [12]: 2 µg/mL (≈ 4.02 µM)
- MIC90 [13]: 4 µg/mL (≈ 8.04 µM)
- MIC90 [14]: 2 µg/mL (≈ 4.02 µM)
- MIC90 [15]: 2 µg/mL (≈ 4.02 µM)
- MIC90 [16]: 2 µg/mL (≈ 4.02 µM)
- MIC90 [17]: 2 µg/mL (≈ 4.02 µM)
- selectivity ratio [18]: > 32
- selectivity ratio [19]: > 32
- MIC90 [20]: 2 µg/mL (≈ 4.02 µM)
- Activity [21]: Active
- MIC90 [22]: 2 µg/mL (≈ 4.02 µM)
- MIC90 [23]: 2 µg/mL (≈ 4.02 µM)
- MIC90 [24]: 2 µg/mL (≈ 4.02 µM)
- MIC90 [25]: 2 µg/mL (≈ 4.02 µM)
- MIC90 [26]: 2 µg/mL (≈ 4.02 µM)
- MIC90 [27]: 2 µg/mL (≈ 4.02 µM)
- Ratio [28]: 1
- MIC90 [29]: 2 µg/mL (≈ 4.02 µM)
- MIC90 [30]: 2 µg/mL (≈ 4.02 µM)
- inhibition [31]: Active
- MIC90 [32]: 2 µg/mL (≈ 4.02 µM)
- selectivity ratio [33]: > 32
- Ratio [34]: >100
- MIC90 [35]: 2 µg/mL (≈ 4.02 µM)
- Ratio [36]: 50 - 100
- MIC90 [37]: 2 µg/mL (≈ 4.02 µM)
- Ratio [38]: 2
- MIC90 [39]: 2 µg/mL (≈ 4.02 µM)
- MIC90 [40]: 2 µg/mL (≈ 4.02 µM)
- MIC90 [41]: 2 µg/mL (≈ 4.02 µM)
- MIC90 [42]: 2 µg/mL (≈ 4.02 µM)
